# Earlier results in patent US11747352B2 (Concordia University, Inc., priority 2017, dated 2023).
# Where two headings read alike, the source gives them in different places.
# How the values were obtained:
# [1] = cited from earlier work; for F %: Table of Tyrosine Kinase Inhibitor Substrates, CYP3A4
# [2] = cited from earlier work; for T½: Table of Tyrosine Kinase Inhibitor Substrates
# plasma protein = settings: cited from earlier work; for Protein binding %: Table of Tyrosine Kinase Inhibitor Substrates
smiles,measurement,setting,value
CN(C)CCC=C1c2ccccc2CCc2ccccc21 [Amitriptyline],ORAL BIOAVAILABILITY,[1]; Table CYP2C9,30-60% ^
same,ORAL BIOAVAILABILITY,[1]; Table CYP2D6,~43-46% ^
same,HALF LIFE,[2]; Table CYP1A2,~13 to 36 h
same,HALF LIFE,[2]; Table CYP2D6,~13 to 36 h
CCOC(=O)C1=C(COCCN)NC(C)=C(C(=O)OC)C1c1ccccc1Cl (stereo not drawn) [Amlodipine],ORAL BIOAVAILABILITY,[1]; Table CYP3A4,64-90% ^
CC(N)Cc1ccccc1 (stereo not drawn) [Amphetamine],ORAL BIOAVAILABILITY,"[1]; in vivo, po",100%
C[C@@H](O[C@H]1OCCN(Cc2n[nH]c(=O)[nH]2)[C@H]1c1ccc(F)cc1)c1cc(C(F)(F)F)cc(C(F)(F)F)c1 [Aprepitant],ORAL BIOAVAILABILITY,[1]; Table CYP3A4,60-65% ^
COC(=O)N[C@H](C(=O)N[C@@H](Cc1ccccc1)[C@@H](O)CN(Cc1ccc(-c2ccccn2)cc1)NC(=O)[C@@H](NC(=O)OC)C(C)(C)C)C(C)(C)C [Atazanavir],ORAL BIOAVAILABILITY,[1]; Table CYP3A4,60-68% ^
CC(C)C[C@H]1C(=O)N2CCC[C@H]2[C@]2(O)O[C@](NC(=O)[C@@H]3C=C4c5cccc6[nH]c(Br)c(c56)C[C@H]4N(C)C3)(C(C)C)C(=O)N12 [Bromocriptine],ORAL BIOAVAILABILITY,[1]; Table CYP3A4,65-95% ^
CCCC1O[C@@H]2C[C@H]3[C@@H]4CCC5=CC(=O)C=C[C@]5(C)[C@H]4[C@@H](O)C[C@]3(C)[C@]2(C(=O)CO)O1 (stereo partly drawn) [Budesonide],ORAL BIOAVAILABILITY,[1]; Table CYP3A4,9-21%^
COc1ccccc1OCCNCC(O)COc1cccc2[nH]c3ccccc3c12 (stereo not drawn) [Carvedilol],ORAL BIOAVAILABILITY,[1]; Table CYP2D6,25-35% ^
same,HALF LIFE,[2]; Table CYP2D6,6 to 10 h
COc1cc(N)c(Cl)cc1C(=O)NC1CCN(CCCOc2ccc(F)cc2)CC1OC (stereo not drawn) [Cisapride],ORAL BIOAVAILABILITY,[1]; Table CYP3A4,35-65% ^
CNCC[C@H](Oc1cccc2ccccc12)c1cccs1 [Duloxetine],ORAL BIOAVAILABILITY,[1]; Table CYP2D6,30-80% ^
O=C1Nc2ccc(Cl)cc2[C@@](C#CC2CC2)(C(F)(F)F)O1 [Efavirenz],ORAL BIOAVAILABILITY,[1]; Table CYP3A4,40-45% ^
COc1ccc(C(=O)Nc2ccccc2CCC2CCCCN2C)cc1 (stereo not drawn) [Encainide],ORAL BIOAVAILABILITY,[1]; Table CYP2D6,25-90% ^
same,HALF LIFE,[2]; Table CYP2D6,11.3 h
C#Cc1cccc(Nc2ncnc3cc(OCCOC)c(OCCOC)cc23)c1 [Erlotinib],Protein binding %,plasma protein,95%
CC[C@H]1OC(=O)[C@H](C)[C@@H](O[C@H]2C[C@@](C)(OC)[C@@H](O)[C@H](C)O2)[C@H](C)[C@@H](O[C@@H]2O[C@H](C)C[C@H](N(C)C)[C@H]2O)[C@](C)(O)C[C@@H](C)C(=O)[C@H](C)[C@@H](O)[C@]1(C)O [Erythromycin],ORAL BIOAVAILABILITY,[1]; Table CYP3A4,30-65% ^
C#C[C@]1(O)CC[C@H]2[C@@H]3CCc4cc(O)ccc4[C@H]3CC[C@@]21C [Ethinyl Estradiol],ORAL BIOAVAILABILITY,[1]; Table CYP3A4,38-48% ^
CCOC(=O)C1=C(C)NC(C)=C(C(=O)OC)C1c1cccc(Cl)c1Cl (stereo not drawn) [Felodipine],ORAL BIOAVAILABILITY,[1]; Table CYP3A4,13-20% ^
O=C(NCC1CCCCN1)c1cc(OCC(F)(F)F)ccc1OCC(F)(F)F (stereo not drawn) [Flecainide],ORAL BIOAVAILABILITY,[1]; Table CYP2D6,70-95% ^
CNCCC(Oc1ccc(C(F)(F)F)cc1)c1ccccc1 (stereo not drawn) [Fluoxetine],ORAL BIOAVAILABILITY,[1]; Table CYP2C9,60-80% ^
same,ORAL BIOAVAILABILITY,[1]; Table CYP2D6,60-80% ^
same,HALF LIFE,[2]; Table CYP2C9,96 to 140 h
same,HALF LIFE,[2]; Table CYP2D6,96 to 140 h
COc1cc2ncnc(Nc3ccc(F)c(Cl)c3)c2cc1OCCCN1CCOCC1 [Gefitinib],F %,[1],59%
same,Protein binding %,plasma protein,90%
same,T½,[2],6 to 49 h
CN(C)CCCN1c2ccccc2CCc2ccccc21 [Imipramine],ORAL BIOAVAILABILITY,[1]; Table CYP2D6,94-96% ^
CCCCC1=NC2(CCCC2)C(=O)N1Cc1ccc(-c2ccccc2-c2nnn[nH]2)cc1 [Irbesartan],ORAL BIOAVAILABILITY,[1]; Table CYP2C9,60-80% ^
same,HALF LIFE,[2]; Table CYP2C9,11 to 15 h
COC(=O)C1=C(C)NC(C)=C(C(=O)OC(C)C)C1c1cccc2nonc12 (stereo not drawn) [Isradipine],ORAL BIOAVAILABILITY,"[1]; Table CYP3A4, CR",CR: 15-24% ^
same,ORAL BIOAVAILABILITY,"[1]; Table CYP3A4, IR",IR: 90-95% ^
CNC1(c2ccccc2Cl)CCCCC1=O (stereo not drawn) [Ketamine],BIOAV[…],"[1]; in vivo, im","IM: 90-93%, PO: 16%"
same,HALF LIFE,[2]; in vivo,2 to 3 h
COc1ccc2c(c1)N(C[C@H](C)CN(C)C)c1ccccc1S2 [Levomepromazine],ORAL BIOAVAILABILITY,[1]; Table CYP2D6,50-60% ^
CN1C(C(=O)Nc2ccccn2)=C(O)c2sc(Cl)cc2S1(=O)=O [Lomoxicam],BIOAVAILABILITY IM,"[1]; in vivo, im",IM: 87%
same,HALF LIFE,[2]; in vivo,4 h
Cc1cccc(C)c1OCC(C)N (stereo not drawn) [Mexiletine],ORAL BIOAVAILABILITY,[1]; Table CYP2D6,80-90% ^
same,HALF LIFE,[2]; Table CYP1A2,10 to 12 h
same,HALF LIFE,[2]; Table CYP2D6,6 to 17 h
CN1CCN2c3ccccc3Cc3ccccc3C2C1 (stereo not drawn) [Mianserin],ORAL BIOAVAILABILITY,[1]; Table CYP2D6,20-30% ^
CC(C)(O)c1ccccc1CC[C@@H](SCC1(CC(=O)O)CC1)c1cccc(/C=C/c2ccc3ccc(Cl)cc3n2)c1 [Montelukast],ORAL BIOAVAILABILITY,[1]; Table CYP2C9,64-73% ^
same,PLASMA PROTEIN BINDING,plasma protein; Table CYP2C9,>99%
same,HALF LIFE,[2]; Table CYP2C9,2.7 to 5.5 h
OC(CNCC(O)C1CCc2cc(F)ccc2O1)C1CCc2cc(F)ccc2O1 (stereo not drawn) [Nebivolol],ORAL BIOAVAILABILITY,[1]; Table CYP2D6,12-96% ^
same,HALF LIFE,[2]; Table CYP2D6,12 to 19 h
Cc1ccnc2c1NC(=O)c1cccnc1N2C1CC1 [Nevirapine],ORAL BIOAVAILABILITY,[1]; Table CYP3A4,80-94% ^
COc1ccc2c3c1O[C@H]1C(=O)CC[C@@]4(O)[C@@H](C2)N(C)CC[C@]314 [Oxycodone],ORAL BIOAVAILABILITY,[1]; Table CYP2D6,60-87% ^
same,ORAL BIOAVAILABILITY,[1]; Table CYP3A4,60-87% ^
[H]/N=C(/N)N/C(=N/[H])NCCc1ccccc1 [Phenformin],ORAL BIOAVAILABILITY,[1]; Table CYP2D6,40-60% ^
same,HALF LIFE,[2]; Table CYP2D6,4 to 13 h
O=C1NC(=O)C(c2ccccc2)(c2ccccc2)N1 [Phenytoin],ORAL BIOAVAILABILITY,[1]; Table CYP2C9,20-90% ^
same,HALF LIFE,[2]; Table CYP2C9,14 to 22 h
CC(=O)[C@H]1CC[C@H]2[C@@H]3CCC4=CC(=O)CC[C@]4(C)[C@H]3CC[C@]12C [Progesterone],PLASMA PROTEIN BINDING,plasma protein; Table CYP2C19,96-99% ^
CC(C)NCC(O)COc1cccc2ccccc12 (stereo not drawn) [Propranolol],ORAL BIOAVAILABILITY,[1]; Table CYP2D6,30-70% ^
same,HALF LIFE,[2]; Table CYP2D6,3 to 6 h
Fc1ccccc1C1=NCC(=S)N(CC(F)(F)F)c2ccc(Cl)cc21 [Quazepam],ORAL BIOAVAILABILITY,[1]; Table CYP3A4,29-35% ^
C=C[C@H]1C[N@@]2CC[C@H]1C[C@H]2[C@H](O)c1ccnc2ccc(OC)cc12 [Quinine],ORAL BIOAVAILABILITY,[1]; Table CYP3A4,76-88% ^
CCOc1cc(CC(=O)N[C@@H](CC(C)C)c2ccccc2N2CCCCC2)ccc1C(=O)O [Repaglinide],ORAL BIOAVAILABILITY,[1]; Table CYP3A4,55%
CCCN1CCCC[C@H]1C(=O)Nc1c(C)cccc1C [Ropivacaine],ORAL BIOAVAILABILITY,"[1]; Table CYP1A2, printed as IV",87-98% - IV
same,HALF LIFE,[2]; Table CYP1A2,5 to 7 h
CN(CCOc1ccc(CC2SC(=O)NC2=O)cc1)c1ccccn1 (stereo not drawn) [Rosiglitazone],HALF LIFE,[2]; Table CYP2C9,3 to 4 h
CO[C@H]1C[C@@H]2CC[C@@H](C)[C@@](O)(O2)C(=O)C(=O)N2CCCC[C@H]2C(=O)O[C@H]([C@H](C)C[C@@H]2CC[C@@H](O)[C@H](OC)C2)CC(=O)[C@H](C)/C=C(\C)[C@@H](O)[C@@H](OC)C(=O)[C@H](C)C[C@H](C)/C=C/C=C/C=C/1C [Sirolimus],ORAL BIOAVAILABILITY,[1]; Table CYP3A4,14-27% ^
CCN(CC)CCNC(=O)c1c(C)[nH]c(/C=C2\C(=O)Nc3ccc(F)cc32)c1C [Sunitinib],F %,[1],50%
same,Protein binding %,plasma protein,95%
same,T½,[2],40 to 60 h
CC(C(=O)O)c1ccc(C(=O)c2cccs2)cc1 (stereo not drawn) [Suprofen],HALF LIFE,[2]; Table CYP2C9,2 to 4 h
CCCCCc1cc(O)c2c(c1)OC(C)(C)[C@@H]1CCC(C)=C[C@@H]21 [THC],ORAL BIOAVAILABILITY,[1]; Table CYP2C9,10-35% ^
same,HALF LIFE,[2]; Table CYP2C9,1.6 to 59 h
Nc1c2c(nc3ccccc13)CCCC2 [Tacrine],HALF LIFE,[2]; in vivo,2 to 4 h
CC/C(=C(\c1ccccc1)c1ccc(OCCN(C)C)cc1)c1ccccc1 [Tamoxifen],HALF LIFE,[2]; Table CYP1A2,~120 to 170 h
same,HALF LIFE,[2]; Table CYP2C9,120 to 170 h
same,HALF LIFE,[2]; Table CYP2D6,120 to 170 h
CC[C@@H](c1cccc(O)c1)[C@@H](C)CN(C)C [Tapentadol],HALF LIFE,[2]; Table CYP2C9,4 to 5 h
same,HALF LIFE,[2]; Table CYP2D6,4 to 5 h
CN(C/C=C/C#CC(C)(C)C)Cc1cccc2ccccc12 [Terbinafine],HALF LIFE,[2]; Table CYP2C9,22 to 26 h
Cn1c(=O)c2[nH]cnc2n(C)c1=O [Theophylline],HALF LIFE,[2]; Table CYP1A2,1.5 to 9.8 h
CSc1ccc2c(c1)N(CCC1CCCCN1C)c1ccccc1S2 (stereo not drawn) [Thioridazine],HALF LIFE,[2]; Table CYP2D6,21 to 24 h
CCCCNC(=O)NS(=O)(=O)c1ccc(C)cc1 [Tolbutamide],HALF LIFE,[2]; Table CYP2C9,4.5 to 6.5 h
Cc1cccc(Nc2ccncc2S(=O)(=O)NC(=O)NC(C)C)c1 [Torasemide],HALF LIFE,[2]; Table CYP2C9,2.2 to 3.8 h
COc1cccc(C2(O)CCCCC2CN(C)C)c1 (stereo not drawn) [Tramadol],HALF LIFE,[2]; in vivo,5.5 to 6.7 h
CN1[C@@H]2CC[C@H]1C[C@@H](OC(=O)c1c[nH]c3ccccc13)C2 [Tropisetron],HALF LIFE,[2]; Table CYP2D6,5.6 to 8.6 h
CCCc1nc(C)c2c(=O)[nH]c(-c3cc(S(=O)(=O)N4CCN(CC)CC4)ccc3OCC)nn12 [Vardenafil],ORAL BIOAVAILABILITY,[1]; Table CYP3A4,15-44% ^
CC(c1cc2ccccc2s1)N(O)C(N)=O (stereo not drawn) [Zileuton],HALF LIFE,[2]; Table CYP1A2,2.5 to 3.2 h
CN(C)CCc1c[nH]c2ccc(C[C@H]3COC(=O)N3)cc12 [Zolmirripran],ORAL BIOAVAILABILITY,"[1]; Table of Exemplary Drugs, CYP1A2",~40%
